Measured values taken from patent US4973675A, “Hybrid nitrosoureidoanthracyclines having antitumor activity” (University of Tennessee Research Center, priority 1989, dated 1990).

Tests used:
Format in all cases: biochemical
[1] = test system: plasmid PC15 supercoiled DNA; experiment: DNA unwinding assay (interference with DNA topoisomerase I-mediated unwinding; drug-DNA intercalation)
DNA topoisomerase II = experiment: Drug-stimulated topoisomerase II-mediated DNA cleavage assay (end-labeled PMC41 DNA); details: summary of biochemical studies
calf thymus DNA = experiment: Interstrand cross-link formation in isolated calf thymus DNA, ethidium bromide fluorescence assay
Protocol: To further assess the alkylation potential of AD 312, the ability of this agent to form interstrand cross-links in isolated calf thymus DNA was examined using an ethidium bromide fluorescence assay. […] In one set of experiments, DNA was exposed briefly to AD 312 (30 minutes at 50° C.) before being reisolated by precipitation with ethanol. […] Such continuing reaction reflects the presence in the DNA of long-lived precursors of crosslinks similar to what has been found for the classical antitumor chloroethylnitrosoureas. […] It appears, therefore, that AD 312 induces DNA interstrand crosslinks via an initial adduct at O^6 -guanine.

COc1cccc2c1C(=O)c1c(O)c3c(c(O)c1C2=O)C[C@@](O)(C(C)=O)C[C@@H]3O[C@H]1C[C@H](NC(=O)N(CCCl)N=O)[C@H](O)[C@H](C)O1 [AD 312, 2-chloroethylnitrosoureidodaunorubicin]
relative strength of drug-DNA intercalation (arbitrary scale) ([1]; 0 = no intercalation, 9 = very strong intercalation): 5 | interference with topoisomerase I-mediated conversion of supercoiled DNA / intercalation ([1]; 4 concentrations, 125-fold range): the ability of these compounds to intercalate, a prerequisite for topoisomerase II inhibition, is clearly established | DNA topoisomerase II-inhibitory and alkylating activity (DNA topoisomerase II): clearly establish the DNA topoisomerase II-inhibitory activity and alkylating activity | interstrand crosslink formation (calf thymus DNA; 10 mM, 4 hours at 50° C.): appreciable interstrand crosslinks | continued crosslink formation after drug removal (calf thymus DNA; 30 min exposure at 50° C., DNA reisolated, further incubation at 50° C.): crosslinks continued to form for several hours | effect of O^6-alkylguanine-DNA alkyltransferase on crosslink formation (calf thymus DNA; enzyme added to AD 312-treated DNA): can block the protracted second step in crosslink formation
